Test results as given in patent US20230000876A1, “TREATING CANCERS WITH A CYCLIN-DEPENDENT KINASE INHIBITOR” (Nuvation Bio Inc., priority 2021, published 2023).
Like-named read-outs stand apart in the source and are kept apart here.

Columns and labels:
[1] = tested on: MCF-7 tumors; assay type: in vivo; conditions: for T/C / TGI: PG-D37
Method: The in vivo anti-tumor efficacy of the compound of formula (I) either alone or in combination with fulvestrant on MCF-7 breast tumor model on female Balb/c nude mice was assessed. MCF-7 cells are a breast cancer cell line that is HR+HER2−. See Booms et al., (2019) Cancer Epidemiol Biomarkers Prev 28(10); 1735-1745, which is hereby incorporated by reference.
The study was in two parts. The first part was designed to measure tumor growth inhibition (TGI). The second part was used to measure pharmacokinetic and pharmacodynamic (PKPD) parameters. In the studies, the compound of formula (I) was dosed orally (po) and fulvestrant was dosed subcutaneously. […]
The MCF-7 tumor cells were maintained in vitro in MEM supplemented with 10% heat inactivated fetal bovine serum at 37° C. in an atmosphere of 5% CO2 in air. The tumor cells were routinely subcultured twice weekly. The cells growing in an exponential growth phase were harvested and counted for tumor inoculation.
Each mouse was inoculated subcutaneously at the right flank with MCF-7 (10*10^6) cells in 0.2 mL of PBS mixed with Matrigel (50:50) for tumor development. 17β-Estradiol (0.36 mg, 60-day release) pellets (Innovative Research of America Cat. No.: SE-121, pellet size: 3.0 mm) were implanted 2 days before cell inoculation.
In TGI part, the treatments was started on day 7 after cell inoculation when the average tumor volume reaches 173 mm^3. 72 mice were selected and assigned into 9 groups. The testing articles were administrated to the mice according to Table 1.
For TGI part, the major endpoint was to see if the tumor growth could be delayed or mice could be cured. Tumor size was measured twice weekly in two dimensions using a caliper, and the volume was expressed in mm^3 using the formula: V=0.5 a×b^2 where a and b are the long and short diameters of the tumor, respectively. The tumor sizes are then used for the calculation of T/C and TGI values.
The T/C value (in percent) is an indication of antitumor effectiveness; T and C are the mean volume of the treated and control groups, respectively, on a given day.
TGI was calculated for each group using the formula: TGI (%)=[1−(Ti−T0)/(Vi−V0)]×100; Ti is the average tumor volume of a treatment group on PG-Di, T0 is the average tumor volume of the treatment group on the day of treatment start, Vi is the average tumor volume of the vehicle control group on the same day with Ti, and V0 is the average tumor volume of the vehicle group on the day of treatment start.
For comparison among of tumor volume of groups 2-9 and group 1, a one-way ANOVA was performed. All the analysis were conducted using GraphPad Prism software. p<0.05 was considered to be statistically significant.

[2] = tested on: MCF-7 tumors; assay type: in vivo; conditions: 1/3/5 mg/dose SC QW, PG-D49
Method: The in vivo anti-tumor efficacy of the compound of formula (I) either alone or in combination with fulvestrant on MCF-7 breast tumor model on female Balb/c nude mice was evaluated. The protocol was he same as described in Example 1 with the exception that the dosing schedule of fulvestrant was modified.

[3] = tested on: xMDA-MB-361 breast tumor; experiment: xMDA-MB-361 breast tumor model (ER-positive/HER2-positive); assay type: in vivo, female BALB/c nude mice; conditions: Group 2: Fulvestrant 1 mg/dose SC QW*42 days
Method: Trastuzumab, tucatinib, Compound (I), and fulvestrant were tested in a xMDA-MB-361 breast tumor model (ER-positive/HER2-positive) on female BALB/c nude mice.

[4] = tested on: xBT474 breast tumor; experiment: xBT474 breast tumor model (ER-negative/HER2-positive); conditions: Group 2: Fulvestrant 1 mg/dose SC QW*28 days

C[C@]12CC[C@@H]3c4ccc(O)cc4C[C@@H](CCCCCCCCC[S+]([O-])CCCC(F)(F)C(F)(F)F)[C@H]3[C@@H]1CC[C@@H]2O (stereo partly shown) [Fulvestrant, reference compound]
T/C ([1]; 1 mg/dose QW): 42.68%
TGI ([1]; 1 mg/dose QW): 62.74%
Tumor volume (mean ± SEM) ([1]; 1 mg/dose SC QW, day 0): 173 ± 12 mm^3
Tumor volume (mean ± SEM) ([1]; 1 mg/dose SC QW, day 3): 206 ± 10 mm^3
Tumor volume (mean ± SEM) ([1]; 1 mg/dose SC QW, day 6): 272 ± 20 mm^3
Tumor volume (mean ± SEM) ([1]; 1 mg/dose SC QW, day 9): 315 ± 33 mm^3
Tumor volume (mean ± SEM) ([1]; 1 mg/dose SC QW, day 13): 389 ± 50 mm^3
Tumor volume (mean ± SEM) ([1]; 1 mg/dose SC QW, day 16): 472 ± 47 mm^3
Tumor volume (mean ± SEM) ([1]; 1 mg/dose SC QW, day 20): 595 ± 87 mm^3
Tumor volume (mean ± SEM) ([1]; 1 mg/dose SC QW, day 23): 623 ± 93 mm^3
Tumor volume (mean ± SEM) ([1]; 1 mg/dose SC QW, day 27): 697 ± 104 mm^3
Tumor volume (mean ± SEM) ([1]; 1 mg/dose SC QW, day 30): 727 ± 116 mm^3
Tumor volume (mean ± SEM) ([1]; 1 mg/dose SC QW, day 34): 829 ± 130 mm^3
Tumor volume (mean ± SEM) ([1]; 1 mg/dose SC QW, day 37): 856 ± 140 mm^3
Tumor volume (mean ± SEM) ([1]; 1 mg/dose SC QW, day 41): 859 ± 142 mm^3
Tumor volume (mean ± SEM) ([1]; 1 mg/dose SC QW, day 44): 808 ± 164 mm^3
Tumor volume (mean ± SEM) ([1]; 1 mg/dose SC QW, day 48): 623 ± 104 mm^3
T/C ([1]; 3 mg/dose QW): 15.70%
TGI ([1]; 3 mg/dose QW): 92.26%
Tumor volume (mean ± SEM) ([1]; 3 mg/dose SC QW, day 0): 173 ± 13 mm^3
Tumor volume (mean ± SEM) ([1]; 3 mg/dose SC QW, day 3): 181 ± 9 mm^3
Tumor volume (mean ± SEM) ([1]; 3 mg/dose SC QW, day 6): 205 ± 16 mm^3
Tumor volume (mean ± SEM) ([1]; 3 mg/dose SC QW, day 9): 240 ± 12 mm^3
Tumor volume (mean ± SEM) ([1]; 3 mg/dose SC QW, day 13): 310 ± 25 mm^3
Tumor volume (mean ± SEM) ([1]; 3 mg/dose SC QW, day 16): 337 ± 33 mm^3
Tumor volume (mean ± SEM) ([1]; 3 mg/dose SC QW, day 20): 285 ± 32 mm^3
Tumor volume (mean ± SEM) ([1]; 3 mg/dose SC QW, day 23): 288 ± 44 mm^3
Tumor volume (mean ± SEM) ([1]; 3 mg/dose SC QW, day 27): 275 ± 35 mm^3
Tumor volume (mean ± SEM) ([1]; 3 mg/dose SC QW, day 30): 294 ± 35 mm^3
Tumor volume (mean ± SEM) ([1]; 3 mg/dose SC QW, day 34): 314 ± 48 mm^3
Tumor volume (mean ± SEM) ([1]; 3 mg/dose SC QW, day 37): 315 ± 50 mm^3
Tumor volume (mean ± SEM) ([1]; 3 mg/dose SC QW, day 41): 329 ± 54 mm^3
Tumor volume (mean ± SEM) ([1]; 3 mg/dose SC QW, day 44): 294 ± 48 mm^3
Tumor volume (mean ± SEM) ([1]; 3 mg/dose SC QW, day 48): 228 ± 29 mm^3
T/C [2]: 38.19%
TGI [2]: 71.50%
Tumor Size [2]: 451 mm^3
Tumor volume (mean ± SEM) ([3]; Day 0): 157 ± 13 mm^3
Tumor volume (mean ± SEM) ([3]; Day 3): 185 ± 11 mm^3
Tumor volume (mean ± SEM) ([3]; Day 7): 226 ± 28 mm^3
Tumor volume (mean ± SEM) ([3]; Day 10): 321 ± 53 mm^3
Tumor volume (mean ± SEM) ([3]; Day 14): 489 ± 101 mm^3
Tumor volume (mean ± SEM) ([3]; Day 17): 588 ± 153 mm^3
Tumor volume (mean ± SEM) ([3]; Day 21): 773 ± 204 mm^3
Tumor volume (mean ± SEM) ([3]; Day 24): 890 ± 235 mm^3
Tumor volume (mean ± SEM) ([3]; Day 28): 1022 ± 256 mm^3
Tumor volume (mean ± SEM) ([3]; Day 31): 1113 ± 293 mm^3
Tumor volume (mean ± SEM) ([3]; Day 35): 1192 ± 330 mm^3
Tumor volume (mean ± SEM) ([3]; Day 38): 1300 ± 344 mm^3
Tumor volume (mean ± SEM) ([3]; Day 42): 1396 ± 356 mm^3
Tumor volume (mean ± SEM) ([4]; Day 0): 146 ± 10 mm^3
Tumor volume (mean ± SEM) ([4]; Day 4): 188 ± 26 mm^3
Tumor volume (mean ± SEM) ([4]; Day 7): 187 ± 14 mm^3
Tumor volume (mean ± SEM) ([4]; Day 11): 311 ± 55 mm^3
Tumor volume (mean ± SEM) ([4]; Day 14): 391 ± 55 mm^3
Tumor volume (mean ± SEM) ([4]; Day 18): 468 ± 69 mm^3
Tumor volume (mean ± SEM) ([4]; Day 21): 532 ± 79 mm^3
Tumor volume (mean ± SEM) ([4]; Day 25): 617 ± 93 mm^3
Tumor volume (mean ± SEM) ([4]; Day 28): 741 ± 113 mm^3
Tumor volume (mean ± SEM) ([4]; Day 32): 750 ± 115 mm^3
Tumor volume (mean ± SEM) ([4]; Day 35): 797 ± 121 mm^3
Tumor volume (mean ± SEM) ([4]; Day 39): 800 ± 131 mm^3
Tumor volume (mean ± SEM) ([4]; Day 42): 843 ± 146 mm^3
Tumor volume (mean ± SEM) ([4]; Day 46): 816 ± 138 mm^3
